Assay [1] has as its system DBA/2J mice. The assay is described as follows: Intraocular pressure in DBA/2J mice (TonoLab tonometer). The settings on record: 50 mg/kg/day orally. It is filed as in vivo, mouse. The protocol: As a model of secondary angle-closure glaucoma, the DBA/2J mice (Anderson, M. G. et al; BMC Genetics (2001)) were employed. The mice were administered orally with 50 mg/kg/day of the compound of Synthetic Example 32 or 53 (Compound 32 or 53, respectively) daily after two months of age. The tomographs of retinae (n=22 to 32 eyes) were obtained in the 6, 7, 8, 9 and 10-month-old mice with the optical coherence tomography (OCT) (Multiline OCT, Heidelberg Engineering) (FIGS. 1 and 2: The OCT images of the retinae of the 8-month-old mice, FIG. 3: The evaluation of the optic nerve cupping in the 7 to 10-month-old mice). The mice in the control group were administered orally with the physiological saline. The eyeballs were enucleated at 10 months of age, and retinae were observed after hematoxylin-eosin (HE) staining (FIG. 4: The micrographs of retinae of the […] mice after HE staining). The thickness of the inner retinal layers and the nerve fiber layers was determined from the OCT images (FIG. 5: The thickness of the nerve fiber layers of the 7-month-old mice; FIG. 6: The thickness of the inner retinal layers of the 8-month-old mice; FIG. 7: The time course of the thickness of the inner retinal layers). The thickness of the inner retinal layer is a sum of the thickness of the nerve fiber and ganglion neuron layer and the inner plexiform layer.
Besides, the intraocular pressure was measured with TonoLab (M. E. Technica) tonometer under general anesthesia monthly from 2 months of age. The mean intraocular pressure at 4, 5, 6, 7 and 8 months of age was 13.6, 14.0, 11.3, 16.3 and 12.8 mmHg in the control group administered with the physiological saline, 13.0, 15.6, 12.0, 12.3 and 14.4 mmHg in the group administered with Compound 32, 14.6, 16.0, 12.8, 13.0 and 14.4 mmHg in the group administered with Compound 53.

Assay [2] concerns rd10 mice. Kind of assay: rd10 mice, model of retinitis pigmentosa: OCT, electroretinogram, HE-stained retinae. In kind it is in vivo, mouse. The settings on record: 33-day-old rd10 mice, 50 mg/kg/day intraperitoneally. The protocol:
As a model of retinitis pigmentosa, the rd10 mice (B6.CXB1-Pde6b^rd10/J (purchased from Jackson Laboratory (Bar Harbor, Me.), Chang B. et al; Vision Res (2007)) were employed. In the mouse model, the rod photoreceptors are completely disappeared within 2 months after birth. The mice were administered intraperitoneally with 50 mg/kg/day of the compound of Synthetic Example 32 or 53 (Compound 32 or 53, respectively) daily from 7 days of age. The tomographs of the retinae were obtained in the 21, 25, 29 and 33-day-old mice with the optical coherence tomography (OCT) (FIGS. 15 and 17: The OCT images of the mice administered with Compound 32 at 25 and 29 days of age; FIGS. 19 and 21: The OCT images of the mice administered with Compound 53 at 25 and 29 days of age). The 21-, 25-, 29- and 33-day-old mice were subjected to dark adaptation and given 3.0 cd/s/m^2 of photic stimulations via a LED-type corneal-contact electrode (Mayo) by LS-W (Mayo). The electroretinogram (ERG) was recorded and analyzed with PowerLab 2/25 (AD Instruments, New South Wales, Australia) to measure the b-wave amplitudes (N=27-37 eyes) (FIGS. 16, 18, 24: The ERG of the 25-, 29- and 33-day-old mice administered with Compound 32; FIGS. 20, 22, 26: The ERG of the 25-, 29- and 33-day-old mice administered with Compound 53). The mice in the control group were administered orally with the physiological saline. […]

The target in assay [3] is Mouse VCP (Mus musculus (Mouse), UniProt Q01853). The assay is described as follows: VCP ATPase inhibitory activity. In kind it is biochemical. The settings on record: ATPase activity of purified VCP, 100 μM [γ-32P]ATP, 37° C., 10 minutes. The protocol: Mouse VCP cDNA (the amino acid sequence is completely identical among mouse, rat and human) is added with a DNA sequence corresponding to a histidine tag at the amino-terminal, subcloned into a baculovirus vector pVL1392 (BD Bioscience), and expressed in Sf-9 insect cells. The protein is purified with a nickel column. After the purification the concentration of the protein is adjusted to […] and the protein is stored in a solution containing 50 mM TrisCl pH 8.0, 5 mM EDTA, 10% glycerol, and 15 mM DTT at 4° C. […] The enzyme reaction is stopped with addition of 200 μL of an ice-cold solution containing 7% TCA and 1 mM K2HPO4. […] The reaction tube is centrifuged for 5 minutes at 20,000 g to separate the aqueous layer and the organic layer, 200 μL of the organic layer is taken, and the beta ray radiated from the liberated phosphate is quantified with liquid scintillation counter. By measuring the ATPase activity in the presence of the test substance at various concentrations, ATPase inhibitory activity of the test substance is measured. […]
Sequence of Mouse VCP (Q01853 whole entry): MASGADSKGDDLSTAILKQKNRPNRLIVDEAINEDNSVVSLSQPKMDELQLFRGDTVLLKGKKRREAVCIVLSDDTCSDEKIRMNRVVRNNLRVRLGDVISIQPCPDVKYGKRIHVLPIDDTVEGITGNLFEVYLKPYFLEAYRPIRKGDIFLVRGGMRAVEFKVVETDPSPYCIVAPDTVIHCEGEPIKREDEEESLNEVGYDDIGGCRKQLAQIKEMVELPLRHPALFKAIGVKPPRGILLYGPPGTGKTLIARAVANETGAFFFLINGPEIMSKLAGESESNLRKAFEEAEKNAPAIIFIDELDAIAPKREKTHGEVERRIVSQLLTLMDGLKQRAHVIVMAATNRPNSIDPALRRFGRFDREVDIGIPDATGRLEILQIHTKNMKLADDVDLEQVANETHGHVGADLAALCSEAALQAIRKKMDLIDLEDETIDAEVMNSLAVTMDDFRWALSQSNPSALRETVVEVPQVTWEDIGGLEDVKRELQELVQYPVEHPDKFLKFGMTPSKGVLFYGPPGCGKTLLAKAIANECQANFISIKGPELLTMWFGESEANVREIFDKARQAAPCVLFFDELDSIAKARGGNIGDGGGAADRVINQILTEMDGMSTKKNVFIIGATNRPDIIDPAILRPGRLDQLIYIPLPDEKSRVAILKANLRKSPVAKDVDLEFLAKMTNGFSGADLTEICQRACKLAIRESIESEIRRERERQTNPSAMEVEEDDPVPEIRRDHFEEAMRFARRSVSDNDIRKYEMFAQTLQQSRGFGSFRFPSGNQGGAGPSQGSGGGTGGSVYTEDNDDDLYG
The ATPase activity was determined as follows. […]
By measuring the ATPase activity in the presence of the test substance at various concentrations, ATPase inhibitory activity of the test substance was measured. […]

Structures can show the parent of a compound that is named as a salt.

With `Cc1cc(F)ccc1-c1ccc(/N=N/c2cc(S(=O)(=O)[O-])c3ccccc3c2N)cn1.[Na+]` [Example 32, 4-amino-3-[6-(4-fluoro-2-methylphenyl)pyridine-3-ylazo]naphthalene-1-sulfonic acid sodium salt], the mean intraocular pressure was 13.0 mmHg in assay [1] (4 months of age); 15.6 mmHg in assay [1] (5 months of age); 12.0 mmHg in assay [1] (6 months of age); 12.3 mmHg in assay [1] (7 months of age); 14.4 mmHg in assay [1] (8 months of age). In assay [2], the “layers of the photoreceptor cells in the retinal section” value was in the range of 4 to 5 layers.

In the case of `Nc1c(/N=N/c2ccc(-c3ccccc3OCCCC(=O)O)nc2)cc(S(=O)(=O)O)c2ccccc12` [Example 43, 4-{2-[5-(1-amino-4-sulfonaphthalene-2-ylazo)pyridine-2-yl]phenoxy}butyric acid disodium salt], in assay [3], the IC50 (usually the concentration that inhibits the measured activity by half) is 378 nM.

On to `CCCCOc1c(C=O)cc(C)cc1-c1ccc(/N=N/c2cc(S(=O)(=O)[O-])c3ccccc3c2N)cn1.[Na+]` [Example 53, 4-amino-3-[6-(3-formyl-2-butoxy-5-methylphenyl)pyridine-3-ylazo]naphthalene-1-sulfonic acid sodium salt], for which the mean intraocular pressure was determined as 14.6 mmHg in assay [1] (4 months of age); 16.0 mmHg in assay [1] (5 months of age); 12.8 mmHg in assay [1] (6 months of age); 13.0 mmHg in assay [1] (7 months of age); 14.4 mmHg in assay [1] (8 months of age). Besides, the “layers of the photoreceptor cells in the retinal section” value in assay [2] lay within 4 to 5 layers.

The record behind these values is patent US9206129B2, “Agent for treatment of eye diseases” (Daito Chemix Corporation, priority 2010, dated 2015).
